The test system of one assay is moths. The experiment in a line: laboratory feeding studies with ingestible formulations. Format: in vivo. The following applies: 1% toxicant in ingestible formulations. The method, then: To determine whether moths will feed on the ingestible formulations, and whether they die as a result, we place a single moth in a 1 litre plastic container which has 50 μl of the formulation as a single droplet in a beer bottle cap, on the bottom of the container. In some experiments laboratory-reared moths are used in a constant 25° C. reverse-cycle system. In others natural cycle laboratory moths are used in containers placed outdoors. Moths are observed at regular intervals and dead ones removed for dissection. At the end of the scotophase all surviving moths are removed and after a further hour are dissected.
In these studies small droplets (50-100 μl) were placed in a 1 litre container with the moths, so they spent the night in close proximity (within 10 cm) of the droplet.

For another assay, the system named is H. armigera moths. The experiment in a line: two-choice olfactometer, moths entering the test chamber. Format: in vivo, Helicoverpa armigera. The note with it: for attractiveness in the olfactometer: blend complexity studies, FIG. 8; for optimum concentration in the olfactometer: formulated in Sirene base, FIG. 6. The text has this: The design of our olfactometer (FIG. 1) has been described by Gregg et al. (1998) and is similar to that of Beerwinkle et al. (1996). The olfactometer is a two-choice system in which moths choose between two airstreams. One carries either a bouquet (about 200 g) of freshly cut plant stems with their bases in a flask of water, or plant volatiles formulated and presented as described below (the test chamber). The other carries clean air (the control chamber). Each run normally uses 50 moths, and runs are normally replicated three times for each sex and each attractant. Thus, olfactometer data points are usually each based on the responses of 150 moths. Moths are laboratory-reared, unmated and aged 1-4 (usually 2-3) days. We use two criteria for attractiveness, the test % (percentage of the total 150 moths which enter the test chamber), and success rate (number entering the test chamber relative to those entering the control chamber). The former is our primary criterion, and is the one presented here. Data are analysed using Zar's procedure for multiple comparison of proportions. With N=150, the minimum significant difference between two percentages using-this procedure is about 8%.
For testing single chemicals in the olfactometer early in the project, we dissolve the synthetic chemical in canola oil at a concentration of 10%. 200 μl of this is absorbed into a cotton dental wick which is placed in the test airstream of the olfactometer. These lures are changed every 2 h during olfactometer runs. Later tests of single chemicals to determine the effects of varying concentration are done using Sirene formulations, as discussed below.
For testing chemical blends in the olfactometer and in field trapping experiments, we are formulating in Sirene, a mixture of anti-oxidants and UV protectants which was developed by Novartis for attract-and-kill of several moth species using pheromones, and for which IPM Technologies Ltd have worldwide marketing and development rights. Chemicals are mixed into Sirene in the barrel of a syringe using a slow (4 rpm) broad-bladed propeller, which stirs the highly viscous material for 3 h. Formulations are then stored at 40 C in the sealed syringe for periods of up to 2 weeks. Sirene formulations are tested in the olfactometer by placing about 100 mg on a horizontal square (1×1 cm) of plastic (Corflute®), which is then placed on a pin in the test airstream of the olfactometer. For field testing, the plastic square carrying the formulation is held horizontally under the lid of the AgriSense trap, in the same position that a pheromone lure would be, using a screw.

Another assay has as its system Lab reared female moths. Kind of assay: field wind tunnel trials. Format: in vivo. The note with it: trial 8, Yanco, 0.5% methomyl. On the procedure:
These are used to observe behavioural responses of moths around lures, and to record kill rates of different blends and formulations, in semi-natural conditions. Clear polythene is stretched around a series of steel hoops 1.2 m in diameter which are suspended from a horizontal pipe Flywire is placed over each end. The wind tunnels are hung just above ground level and oriented parallel to the prevailing wind. Lures (3 bottle tops containing 100-200 μl of the attractant under test) are placed on a plastic dinner plate in the upwind end and 20-50 moths are released into the downwind end about 1 h before sunset. Lab reared female moths produced under natural photoperiod are used. Behavioural responses are observed using night vision glasses. In the morning both live and dead moths are collected and dissected to determine from the presence of green dye whether they have fed on the lure.

For the next assay, the system named is Helicoverpa spp. Kind of assay: field trapping trials with AgriSense traps. The assay is classed as in vivo. The following applies: for Peak catch % of phero / Whole experiment Lure N: Downs. The text has this: For field tests of the attractiveness of different blends we use AgriSense pheromone traps of the canister type (Gregg and Wilson 1991). Traps are usually cleared three times weekly, and the catch sorted. Moths are sexed and the females dissected to determine mated status. We normally test 5 formulations at a time, replicated 4 times, so there are 4 rows of 5 traps, each row containing one replicate of each formulation. Traps are spaced 50 m apart and are rotated, within a row, between catch intervals. Experiments are analysed as Latin squares. Field trials at Cecil Plains were conducted in soybeans, cotton, chickpea, wheat, fallow land and sunflower, and at Kununurra and China, in cotton.
These trials have been done at different times, and in different areas, different crops and different weather conditions. In some cases the conditions have been less than optimal. Examples include the Twynam 1, 2 and 3 trials in the Ord River, where night temperatures were often too low for moth activity, and the last two Wamara trials in 2000 where moth numbers in the district were extremely low. Because of these differences it is not possible to directly compare the numbers of moths caught between trials. We have therefore expressed the results as a percentage of the pheromone traps run in the same experiments. This percentage has been calculated on the catch interval with the highest volatile catches. We do this because the residual life of some volatiles is short and some formulations probably lose attractiveness during the course of the trials, whereas the pheromone release rate remains relatively constant. PBE1 was also included in almost all of these trials, as a standard plant volatile blend. The unweighted average catch of PBE1, across all trials, was 5.8% of the pheromone catch. Though PBE1 and some other volatile formulations occasionally caught up to 15-33% of the corresponding pheromone catch, when this occurred the overall numbers of moths were low, so the results are statistically unreliable.

[1] abbreviates: single chemicals in Sirene formulations.
[2] abbreviates: single chemicals, 10% in canola oil, females, FIG. 5.
Setting [3] is: Wamara3 Soybean, 20 Feb-12 Mar 99.

On to `CNC(=O)Oc1cccc2ccccc12` [carbaryl], for which the “% killed, summary of trials” value in the assay with moths is reported as 69-94%.
`O=CCc1ccccc1` [phenylacetaldehyde]: in the assay on H. armigera moths, the “attractiveness in the olfactometer” value is reported as “significantly attractive”. The “optimum concentration in the olfactometer” value (“optimum concentration” below) in the assay with H. armigera moths is reported as “about 1%”. The results for the “attraction in the olfactometer (statistical significance)” value (“attraction … (statistical significance)” for short) in the assay with H. armigera moths (setting [1]) and with H. armigera moths (setting [2]) were “confirmed” and “statistically significant levels of attraction”, respectively. Moreover, the “% killed” value with Lab reared female moths (attractant at 2%) was 33.3 b %; with Lab reared female moths (attractant at 8%), 25.6 b %. Also, the N killed with Lab reared female moths (attractant at 2%) came out at 14; in the assay on Lab reared female moths (attractant at 8%), 11. Besides, the “Peak catch % of phero” value is listed as 0.4% with Helicoverpa spp. (Wamara1Soybean, 1-30 Jan 99); 1.1% in the assay on Helicoverpa spp. (Wamara2 Soybean, 13-19 Feb 99); 3.1% with Helicoverpa spp. (setting [3]). Also, the “Whole experiment Lure N” value is recorded as 10 in the assay on Helicoverpa spp. (Wamara1Soybean, 1-30 Jan 99); 5 with Helicoverpa spp. (Wamara2 Soybean, 13-19 Feb 99); 8 in the assay with Helicoverpa spp. (setting [3]). Further, in the assay on Helicoverpa spp. (field trapping trials), the “catch in field traps, in words” value is “caught very few moths”. Moreover, the “catch relative to the PBE1 catch” value in the assay on Helicoverpa spp. (third direct comparison with PBE1) is “less than a quarter”.
Consider `CC/C=C\CCOC(C)=O` [Z-3-hexenyl acetate], for which the “attraction … (statistical significance)” value in the assay with H. armigera moths (setting [2]) is reported as “statistically significant levels of attraction”.
Consider `CC/C=C\CCOC(=O)c1ccccc1O` [Z-3-hexenyl salicylate], for which the test % is 26.7% in the assay with H. armigera moths (2% concentration in Sirene) and 33.8% in the assay on H. armigera moths (in canola oil). Further, the “attractiveness in the olfactometer” value in the assay with H. armigera moths is recorded as “significantly attractive on its own”. For the same compound, the “attraction … (statistical significance)” value in the assay on H. armigera moths (setting [1]) was “confirmed”; with H. armigera moths (setting [2]), “statistically significant levels of attraction”.
With `C=C(C)[C@H]1CC=C(C)CC1` [limonene], the “attractiveness in the olfactometer” value with H. armigera moths is given as “statistically significant”. Also, the “attraction … (statistical significance)” value with H. armigera moths (setting [2]) is listed as “statistically significant levels of attraction”.
On to `C=CCc1ccc(OC)c(OC)c1` [methyl eugenol], for which the “optimum concentration” value with H. armigera moths was “about 2%”.
For the compound `CC1=CCC2C(C1)C2(C)C` (stereo not shown) [Blend 3-carene, 3-carene], the “attraction … (statistical significance)” value in the assay with H. armigera moths (setting [2]) was “statistically significant levels of attraction”.
The same measure, in the same setting: to `CC(C)=CCC/C(C)=C/CO` [geraniol] belongs “statistically significant levels of attraction”.
Take `OCCc1ccccc1` [2-phenylethanol]: the test % in the assay with H. armigera moths (2% concentration in Sirene) was found to be 26.4%; in the assay on H. armigera moths (in canola oil), 29%. Also, the “attractiveness in the olfactometer” value in the assay on H. armigera moths is “significantly attractive”. Moreover, the entries for the “attraction … (statistical significance)” value in the assay with H. armigera moths (setting [1]) and with H. armigera moths (setting [2]) were “confirmed” and “statistically significant levels of attraction”, respectively.
Consider `CNC(=O)ON=C(C)SC` [methomyl], for which the “% killed, summary of trials” value in the assay on moths was “killed all moths”.
Take `OCc1ccccc1` [benzyl alcohol]: the “optimum concentration” value with H. armigera moths is “about 1%”. Also, the entries for the “attraction … (statistical significance)” value with H. armigera moths (setting [1]) and in the assay with H. armigera moths (setting [2]) were “confirmed” and “statistically significant levels of attraction”, respectively.

The values above are taken from patent US20050042316A1, “Attractants for moths” (priority 2001, published 2005).
